Test system: Plasmodium berghei
Assay: Luciferase/luciferin-expressing antifolate-resistant parasites were used to infect a culture of HepG2 cells that were pre-incubated with compounds. Infected hepatocytes emit light due to the luciferase reaction. Assay results are presented as the percent inhibition of light emission compared to control. […]
Type: functional
Details: sporozoite; for IC50: read-out: LUCIFERASE INFECTION ASSAY - IC50; for IC90: read-out: LUCIFERASE INFECTION ASSAY - IC90

SMILES | IC50 | IC90
O=[N+]([O-])c1ccc(NC2CCN(Cc3ccccc3)CC2)c2ccncc12 | 9.37 µM | > 10 µM
CCNC(=O)COc1ccc(/C=C2\COc3ccccc3C2=O)cc1OC | > 10 µM | > 10 µM
Cc1c(C(=O)NC2CCN(Cc3ccccc3)C2)oc2c(Cl)cccc12 (configuration not stated) | > 10 µM | > 10 µM
CC(=O)Nc1ccc(S(=O)(=O)NCCC(=O)OCc2ccccc2F)cc1 | > 10 µM | > 10 µM
Cc1ccc(NC(=O)COc2ccc(CCO)cc2-n2nc3ccccc3n2)cc1C | > 10 µM | > 10 µM
Cc1nc(N2CCN(Cc3ccccc3)CC2)nc2c1C(=O)CC(C)C2 (configuration not stated) | > 9.42 µM | > 9.42 µM
Clc1ccc(SCc2cc(N3CCOCC3)nc(-c3ccccn3)n2)cc1 | 4.81 µM | 4.86 µM
Cc1cc(C(C)(C)C)cc(C)c1CCNC(=O)c1ccc[n+]([O-])c1 | > 10 µM | > 10 µM
C/C(=N\Nc1nc2ccccc2[nH]1)c1ccc2c(c1)OCO2 | 4.04 µM | 4.99 µM
O=C(O)c1ccc(CN2C(=O)CCC2=O)cc1 | > 10 µM | > 10 µM
FC(F)(F)c1ccc(C2c3ccsc3CCN2C(=S)Nc2ccc(Cl)cc2Cl)cc1 (configuration not stated) | 4.24 µM | > 6.77 µM
O=c1c2ccccc2nc2c3ccccc3c(NCCCN3CCOCC3)nn12 | 9.05 µM | > 10 µM
CC(=O)NC(C)c1ccc(C2=NNC(=Nc3cccc(Cl)c3C)SC2)cc1 (configuration not stated) | > 10 µM | > 10 µM
COc1ccccc1-c1nnc(SCc2cc(=O)c(O)co2)n1C | > 10 µM | > 10 µM
COc1ccc(OCCN(C)C(=O)c2ccc(-n3cccn3)cc2)cc1 | > 10 µM | > 10 µM
CCCCCC1C(O)CC(c2ccccc2)N(C)C1c1ccccc1 (configuration not stated) | > 9.78 µM | > 9.78 µM
O=C(NCC#Cc1ccccc1)c1cccc2cccnc12 | > 10 µM | > 10 µM
Cc1cc(C(=O)OCC(=O)c2ccc[nH]2)c2c(C)noc2n1 | > 10 µM | > 10 µM
CCC(C)(C)C1CCC(NC(=O)N(C)CC(=O)Nc2c(C)cccc2C)CC1 (configuration not stated) | > 10 µM | > 10 µM
CCOC(=O)c1cc(C#N)c(SCC(=O)Nc2ccccc2CC)nc1C | > 10 µM | > 10 µM
Cc1ccc(-c2csc(NCSc3cccc4cccnc34)n2)cc1 | > 10 µM | > 10 µM
FC(F)(F)c1ccc(Nc2ccc3c(c2)CCC3)nc1 | > 10 µM | > 10 µM

SMILES | IC50 | IC90
N#Cc1ccc(CN2CCN(c3ccc(-c4nc5ccccc5[nH]4)cn3)CC2)cc1 | > 10 µM | > 10 µM
CCN(CCC#N)c1ccc(/C=C2/C(=O)Nc3cc(Cl)ccc32)c(C)c1 | > 10 µM | > 10 µM
O=C1CN(C(=O)COc2ccc(F)cc2Br)CCN1 | > 10 µM | > 10 µM
O=C(c1c[nH]c2ccccc12)C(NCc1ccc(F)cc1)c1ccccc1 (configuration not stated) | > 10 µM | > 10 µM
Cc1ccsc1C(=O)OCC(=O)Nc1cc(C(C)(C)C)no1 | > 10 µM | > 10 µM
Fc1ccc(-c2nc3ccc(Cl)cc3[nH]2)cc1 | > 13.4 µM | > 13.4 µM
CCNc1nnc(SC(C)C(=O)Nc2ccc(OC(F)F)cc2)s1 (configuration not stated) | > 10 µM | > 10 µM
COc1ccc(C(c2ccc(N(C)C)cc2)c2ccc(N(C)C)cc2)c(C)c1C | > 8.49 µM | > 8.49 µM
Cc1ccc(C2Nc3ccccc3C(=O)N2C(C)c2ccccc2)o1 (configuration not stated) | > 10 µM | > 10 µM
CC(C)(C)c1cc(C(c2ccccn2)N2CCCC2)cc(C(C)(C)C)c1O (configuration not stated) | > 10 µM | > 10 µM
CNS(=O)(=O)c1ccc(NC(=O)c2ccc3[nH]c(C)c(C)c3c2)cc1 | > 10 µM | > 10 µM
O=[N+]([O-])c1ccc(Nc2cccc(OC3CCCC3)c2)nc1 | > 10 µM | > 10 µM
CC(C)CN1CCOC(CSc2nc3sc4c(c3c(=O)n2C)CCC4)C1 (configuration not stated) | > 10 µM | > 10 µM
O=C1CCCN1c1cccc(Oc2nc(-c3cccnc3)nc3ccccc23)c1 | > 10 µM | > 10 µM
Cc1ccc2c(c1)CCCN2CC(=O)Nc1sccc1C(N)=O | > 10 µM | > 10 µM
O=c1c2sccc2ncn1Cc1cc(-c2cccs2)on1 | > 10 µM | > 10 µM
Cc1ccc(-n2nnnc2-c2cnc3ccccc3c2-c2ccccc2)cc1 | > 9.08 µM | > 9.08 µM
OCCNc1nc(Sc2ccc(Cl)cc2)nc2ccccc12 | > 10 µM | > 10 µM
COc1ccc(C)cc1CCNC(=O)c1cc(C2CC2)nn1-c1ccccc1 | > 10 µM | > 10 µM
O=C(Nc1ccc(-c2nccs2)cc1)c1cc(Br)c[nH]1 | 7.5 µM | > 10 µM
CC(C)c1ccc(-c2noc(CCC(=O)Nc3ccn(C)n3)n2)cc1 | > 10 µM | > 10 µM
CC(Nc1ccc2c(c1)OC(F)(F)O2)C(=O)Nc1ccc(Cl)cn1 (configuration not stated) | > 10 µM | > 10 µM

SMILES | IC50 | IC90
Cc1nc2ccccc2c(=O)n1-c1ccc(C(=O)NCCCc2ccccc2)cc1 | > 10 µM | > 10 µM
O=S(=O)(Nc1cccc(-c2ncon2)c1)c1cc(C(F)(F)F)cc(C(F)(F)F)c1 | 0.531 µM | > 7.55 µM
Cc1nc(NCCSc2nccn2C)c2c(-c3ccccc3)csc2n1 | > 10 µM | > 10 µM
Cc1cc(-c2ccc(Cl)cc2)nc2c1c(C)nn2CCO | 4.08 µM | > 10 µM
Cc1sc2ncnc(NC(C)C(=O)Nc3ccc4c(c3)OCCCO4)c2c1C (configuration not stated) | 8.08 µM | > 10 µM
COc1ccc(CCNC(=O)COC(=O)c2sc(C)nc2C)cc1 | > 10 µM | > 10 µM
O=C(Nc1ncccc1O)c1ccc(-c2ccc3c(c2)OCCO3)s1 | 7.42 µM | > 10 µM
CCc1sc(C(=O)Nc2nc(-c3ccc(CNC(C)=O)cc3)cs2)cc1C | > 10 µM | > 10 µM
CC1CCCCC1NC(=O)c1c[nH]c2ccc(Br)cc12 (configuration not stated) | > 10 µM | > 10 µM
CSc1nc2ccc(NC(=O)c3cn4ccccc4n3)cc2s1 | 3.18 µM | > 10 µM
COc1ccc(CNC(=O)c2ccc3c(c2)NC(=O)C(C)S3)cc1OC (configuration not stated) | > 10 µM | > 10 µM
COc1ccc(CNc2ncnc3ccsc23)cc1 | 8.88 µM | > 10 µM
CC(C(=O)Nc1cccc(C#Cc2cccs2)c1)n1cnc2ccccc21 (configuration not stated) | > 10 µM | > 10 µM
COc1ccc(OCCN2CCN(C(C)C(=O)Nc3sccc3C(N)=O)CC2)cc1 (configuration not stated) | > 10 µM | > 10 µM
O=C(Nc1nc2ccccc2[nH]1)C(Sc1ccccc1)c1ccccc1 (configuration not stated) | > 10 µM | > 10 µM
Cc1ccc(NC(=O)CN2CCN(Cc3c(O)ccc4ccncc34)CC2)cc1 | > 10 µM | > 10 µM
COc1ccc(/C=C2\CCCc3c2nc2ncnn2c3-c2ccc(OC)cc2)cc1 | > 10 µM | > 10 µM
COc1ccc2oc(C(=O)Nc3nnc(C(C)C)s3)c(C)c2c1 | 4.49 µM | > 10 µM
Cc1nc(SCc2nc(-c3cccs3)no2)c(C#N)c(C)c1C | 0.0298 µM | 0.683 µM
CC1CCC2(CC1)NC(=O)N(CC(=O)NCC(F)(F)F)C2=O (configuration not stated) | > 10 µM | > 10 µM
O=C(Nc1nc2c(s1)CCc1ccccc1-2)c1cccc(-n2cnnn2)c1 | > 10 µM | > 10 µM
Cc1sc2nc(-c3cccnc3)nc(NCC(c3ccco3)N(C)C)c2c1C (configuration not stated) | > 10 µM | > 10 µM

Source: ChEMBL document CHEMBL4483862, “Open-source discovery of chemical leads for next-generation chemoprotective antimalarials” (2018)
